From ChEMBL document CHEMBL4619816, “GSK973 Is an Inhibitor of the Second Bromodomains (BD2s) of the Bromodomain and Extra-Terminal (BET) Family” (ACS Med Chem Lett, 2020)
Calls of active or inactive are those of the source.

Key:
[1] = biological target: Nucleosome-remodeling factor subunit BPTF (Homo sapiens) (UniProt Q12830); assay: Inhibition of human partial length FALZ (S2791 to H2911 residues) expressed in bacterial expression system by BROMOscan assay
[2] = biological target: Transcription initiation factor TFIID subunit 1-like (Homo sapiens) (UniProt Q8IZX4); assay: Inhibition of human partial length TAF1L bromodomain 2 (Q1523 to D1654 residues) expressed in bacterial expression system by BROMOscan assay
[3] = biological target: Bromodomain-containing protein 1 (Homo sapiens) (UniProt O95696); assay: Inhibition of human partial length BRD1 (E556 to A688 residues) expressed in bacterial expression system by BROMOscan assay
Sequence of Bromodomain-containing protein 1 (Homo sapiens) (O95696 whole entry, the tested form may be a part): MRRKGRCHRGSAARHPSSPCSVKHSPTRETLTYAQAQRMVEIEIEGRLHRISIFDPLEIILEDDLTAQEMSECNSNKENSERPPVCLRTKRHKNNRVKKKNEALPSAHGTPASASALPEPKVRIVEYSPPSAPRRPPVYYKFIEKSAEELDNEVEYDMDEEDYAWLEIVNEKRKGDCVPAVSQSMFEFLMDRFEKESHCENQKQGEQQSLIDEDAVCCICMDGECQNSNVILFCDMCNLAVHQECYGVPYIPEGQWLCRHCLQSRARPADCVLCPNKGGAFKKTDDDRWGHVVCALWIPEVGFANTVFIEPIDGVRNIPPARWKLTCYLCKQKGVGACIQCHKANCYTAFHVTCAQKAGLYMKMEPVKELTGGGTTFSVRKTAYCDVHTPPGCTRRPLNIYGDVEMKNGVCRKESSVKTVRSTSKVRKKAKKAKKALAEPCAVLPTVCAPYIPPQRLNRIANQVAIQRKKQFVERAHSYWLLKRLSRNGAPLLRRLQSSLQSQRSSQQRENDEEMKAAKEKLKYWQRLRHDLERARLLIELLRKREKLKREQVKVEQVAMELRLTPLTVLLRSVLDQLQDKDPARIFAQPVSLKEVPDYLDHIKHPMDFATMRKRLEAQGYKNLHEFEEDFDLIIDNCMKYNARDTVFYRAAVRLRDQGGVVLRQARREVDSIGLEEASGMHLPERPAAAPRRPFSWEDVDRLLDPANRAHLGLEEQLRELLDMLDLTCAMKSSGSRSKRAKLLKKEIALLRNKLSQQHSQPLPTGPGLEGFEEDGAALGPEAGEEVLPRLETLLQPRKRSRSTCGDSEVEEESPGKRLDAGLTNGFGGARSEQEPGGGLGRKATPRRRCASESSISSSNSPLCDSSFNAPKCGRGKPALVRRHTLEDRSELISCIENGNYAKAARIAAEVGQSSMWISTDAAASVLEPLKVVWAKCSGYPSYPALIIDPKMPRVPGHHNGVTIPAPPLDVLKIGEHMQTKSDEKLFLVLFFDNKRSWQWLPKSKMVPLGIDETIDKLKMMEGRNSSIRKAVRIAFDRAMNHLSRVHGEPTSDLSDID

[4] = biological target: CREB-binding protein (Homo sapiens) (UniProt Q92793); assay: Inhibition of human partial length CREBBP (R1081 to G1197 residues) expressed in bacterial expression system by BROMOscan assay
[5] = biological target: Bromodomain and PHD finger-containing protein 3 (Homo sapiens) (UniProt Q9ULD4); assay: Inhibition of human partial length BRPF3 (E588 to G701 residues) expressed in bacterial expression system by BROMOscan assay
Sequence of Bromodomain and PHD finger-containing protein 3 (Homo sapiens) (Q9ULD4 whole entry, the tested form may be a part): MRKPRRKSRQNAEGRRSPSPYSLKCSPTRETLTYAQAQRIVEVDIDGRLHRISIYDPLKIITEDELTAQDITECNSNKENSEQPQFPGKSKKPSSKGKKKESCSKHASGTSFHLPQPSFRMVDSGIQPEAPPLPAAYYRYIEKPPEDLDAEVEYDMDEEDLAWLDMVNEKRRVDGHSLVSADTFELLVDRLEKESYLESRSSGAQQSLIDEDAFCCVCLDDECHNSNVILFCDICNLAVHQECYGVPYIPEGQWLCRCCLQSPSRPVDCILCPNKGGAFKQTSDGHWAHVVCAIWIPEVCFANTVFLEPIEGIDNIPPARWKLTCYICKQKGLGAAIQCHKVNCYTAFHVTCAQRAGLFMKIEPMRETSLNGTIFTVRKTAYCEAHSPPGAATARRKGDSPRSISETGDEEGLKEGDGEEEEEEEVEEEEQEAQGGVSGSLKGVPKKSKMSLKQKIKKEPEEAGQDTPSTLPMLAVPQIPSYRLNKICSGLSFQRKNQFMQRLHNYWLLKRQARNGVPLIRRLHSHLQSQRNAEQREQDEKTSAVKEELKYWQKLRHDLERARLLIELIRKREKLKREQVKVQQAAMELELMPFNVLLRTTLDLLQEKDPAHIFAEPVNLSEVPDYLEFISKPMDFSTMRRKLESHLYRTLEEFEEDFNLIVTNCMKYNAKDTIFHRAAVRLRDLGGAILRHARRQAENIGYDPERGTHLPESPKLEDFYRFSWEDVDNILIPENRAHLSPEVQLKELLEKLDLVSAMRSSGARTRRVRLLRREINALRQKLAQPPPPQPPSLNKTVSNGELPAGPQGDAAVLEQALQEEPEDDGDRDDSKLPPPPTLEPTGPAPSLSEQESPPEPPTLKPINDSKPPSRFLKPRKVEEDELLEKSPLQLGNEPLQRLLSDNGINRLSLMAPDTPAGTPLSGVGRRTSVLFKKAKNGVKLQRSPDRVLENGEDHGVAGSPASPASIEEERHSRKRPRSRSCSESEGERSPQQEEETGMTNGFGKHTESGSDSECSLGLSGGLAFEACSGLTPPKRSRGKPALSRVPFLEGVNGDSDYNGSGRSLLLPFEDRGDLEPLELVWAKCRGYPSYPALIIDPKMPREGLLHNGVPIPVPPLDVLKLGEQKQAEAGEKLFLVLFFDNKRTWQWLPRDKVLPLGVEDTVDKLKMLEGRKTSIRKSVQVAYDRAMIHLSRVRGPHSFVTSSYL

[6] = biological target: Bromodomain testis-specific protein (Homo sapiens) (UniProt Q58F21); assay: Inhibition of human partial length BRDT bromodomain 2 (K250 to E382 residues) expressed in bacterial expression system by BROMOscan assay
[7] = biological target: Bromodomain-containing protein 3 (Homo sapiens) (UniProt Q15059); assay: Inhibition of human partial length BRD3 bromodomain 1 (P24 to E144 residues) expressed in bacterial expression system by BROMOscan assay
Sequence of Bromodomain-containing protein 3 (Homo sapiens) (Q15059 2-726 limits assumed): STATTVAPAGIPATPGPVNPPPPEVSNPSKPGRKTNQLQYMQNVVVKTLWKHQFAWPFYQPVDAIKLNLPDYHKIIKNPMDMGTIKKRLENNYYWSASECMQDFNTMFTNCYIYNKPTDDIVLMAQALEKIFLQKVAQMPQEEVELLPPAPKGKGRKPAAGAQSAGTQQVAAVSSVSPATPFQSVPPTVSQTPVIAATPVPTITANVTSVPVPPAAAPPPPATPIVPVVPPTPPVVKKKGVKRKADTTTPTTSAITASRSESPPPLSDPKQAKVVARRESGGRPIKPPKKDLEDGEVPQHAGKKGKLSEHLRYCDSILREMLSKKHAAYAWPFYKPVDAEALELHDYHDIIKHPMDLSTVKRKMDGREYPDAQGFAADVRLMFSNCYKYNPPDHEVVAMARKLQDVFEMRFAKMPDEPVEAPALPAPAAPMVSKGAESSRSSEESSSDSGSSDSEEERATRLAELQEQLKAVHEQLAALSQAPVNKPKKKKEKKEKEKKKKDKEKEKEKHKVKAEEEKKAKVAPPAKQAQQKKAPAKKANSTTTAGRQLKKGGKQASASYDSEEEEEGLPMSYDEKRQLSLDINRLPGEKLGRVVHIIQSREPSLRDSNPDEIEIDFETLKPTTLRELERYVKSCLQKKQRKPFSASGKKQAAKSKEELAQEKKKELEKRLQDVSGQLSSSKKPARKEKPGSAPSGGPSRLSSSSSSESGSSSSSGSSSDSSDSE

[8] = biological target: Chromatin remodeling regulator CECR2 (Homo sapiens) (UniProt Q9BXF3); assay: Inhibition of human partial length CECR2 (P423 to D543 residues) expressed in bacterial expression system by BROMOscan assay
[9] = biological target: Bromodomain and WD repeat-containing protein 1 (Homo sapiens) (UniProt Q9NSI6); assay: Inhibition of human partial length WDR9 bromodomain 2 (A1310 to E1430 residues) expressed in bacterial expression system by BROMOscan assay
[10] = biological target: Transcription initiation factor TFIID subunit 1 (Homo sapiens) (UniProt P21675); assay: Inhibition of human partial length TAF1 bromodomain 2 (D1521 to D1656 residues) expressed in bacterial expression system by BROMOscan assay
[11] = biological target: Histone acetyltransferase p300 (Homo sapiens) (UniProt Q09472); assay: Inhibition of human partial length EP300 (A1040 to G1161 residues) expressed in bacterial expression system by BROMOscan assay
[12] = biological target: Bromodomain-containing protein 8 (Homo sapiens) (UniProt Q9H0E9); assay: Inhibition of BRD8 bromodomain 1 (unknown origin) by BROMOscan assay
Sequence of Bromodomain-containing protein 8 (Homo sapiens) (Q9H0E9 whole entry): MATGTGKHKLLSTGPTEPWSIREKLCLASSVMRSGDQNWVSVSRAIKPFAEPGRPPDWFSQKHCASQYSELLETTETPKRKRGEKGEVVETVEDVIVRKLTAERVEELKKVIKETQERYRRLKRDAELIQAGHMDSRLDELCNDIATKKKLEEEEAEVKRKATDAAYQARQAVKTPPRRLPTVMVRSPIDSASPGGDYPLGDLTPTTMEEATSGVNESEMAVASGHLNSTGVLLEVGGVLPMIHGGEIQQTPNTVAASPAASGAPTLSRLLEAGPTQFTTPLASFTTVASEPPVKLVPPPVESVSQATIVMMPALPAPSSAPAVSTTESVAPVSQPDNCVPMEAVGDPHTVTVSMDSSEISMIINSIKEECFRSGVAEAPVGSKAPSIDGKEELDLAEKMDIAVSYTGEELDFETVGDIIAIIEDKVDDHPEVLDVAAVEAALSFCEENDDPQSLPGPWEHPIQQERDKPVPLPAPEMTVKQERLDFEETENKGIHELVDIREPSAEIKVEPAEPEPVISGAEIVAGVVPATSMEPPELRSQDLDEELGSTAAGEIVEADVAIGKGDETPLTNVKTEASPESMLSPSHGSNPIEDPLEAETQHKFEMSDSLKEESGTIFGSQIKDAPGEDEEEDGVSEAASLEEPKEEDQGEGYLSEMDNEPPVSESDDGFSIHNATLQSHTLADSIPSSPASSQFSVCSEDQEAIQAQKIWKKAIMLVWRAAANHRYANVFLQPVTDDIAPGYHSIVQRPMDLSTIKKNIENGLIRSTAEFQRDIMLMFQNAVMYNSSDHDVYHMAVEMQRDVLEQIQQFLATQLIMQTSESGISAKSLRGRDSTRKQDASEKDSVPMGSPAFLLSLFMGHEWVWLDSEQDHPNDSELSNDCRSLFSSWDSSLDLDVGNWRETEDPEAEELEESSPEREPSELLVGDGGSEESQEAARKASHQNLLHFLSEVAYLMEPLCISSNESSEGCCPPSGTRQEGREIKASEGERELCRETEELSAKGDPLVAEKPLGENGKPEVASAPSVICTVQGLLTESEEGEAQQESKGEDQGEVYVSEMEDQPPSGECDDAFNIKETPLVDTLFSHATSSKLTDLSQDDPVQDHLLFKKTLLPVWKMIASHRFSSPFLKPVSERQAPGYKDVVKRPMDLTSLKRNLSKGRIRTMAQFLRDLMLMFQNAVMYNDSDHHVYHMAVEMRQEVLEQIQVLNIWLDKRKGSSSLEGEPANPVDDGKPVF

Measured: inhibition

CNC(=O)c1cc(C(=O)N[C@@H]2[C@@H]3COC[C@@H]32)cc2c1O[C@H](CF)[C@H]2c1ccccc1
inactive: all assays above
